Test results as given in paper PMC6327044, “A chemical biology screen identifies a vulnerability of neuroendocrine cancer cells to SQLE inhibition” (Nature Communications, 2019).

Key:
Experiment in all cases: cells
Design in all cases: species or system panel of 482 human cancer cell lines; ATPLite luminescence growth inhibition after treatment, nine-point dilution curve, 482 cancer cell lines, 384-well
Details in all cases: 72 h, recommended growth medium
[1] = test system: TT_OESOPHAGUS
Summary of the method: (§1)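 Growth inhibition was measured across a panel of 482 cancer cell lines. Cells were plated at 500 cells per well in recommended growth media in black, tissue culture treated 384-well plates, centrifuged to equilibrate, and incubated 24 h before dosing. Compounds were tested as nine-point dilution curves for 72 h, with viability read by ATPLite luminescence relative to DMSO-treated controls.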

[2] = test system: HCT8_LARGE_INTESTINE
Summary of the method: as §1

[3] = test system: MORCPR_LUNG
Summary of the method: as §1

[4] = test system: 2313287_STOMACH
Summary of the method: as §1

[5] = test system: SNU175_LARGE_INTESTINE
Summary of the method: as §1

[6] = test system: SKNBE2_AUTONOMIC_GANGLIA
Summary of the method: as §1

[7] = test system: AMO1_HAEMATOPOIETIC_AND_LYMPHOID_TISSUE
Summary of the method: as §1

[8] = test system: NCIN87_STOMACH
Summary of the method: as §1

[9] = test system: MFE280_ENDOMETRIUM
Summary of the method: as §1

[10] = test system: TE11_OESOPHAGUS
Summary of the method: as §1

[11] = test system: CHP126_AUTONOMIC_GANGLIA
Summary of the method: as §1

[12] = test system: LU24_LUNG
Summary of the method: as §1

[13] = test system: KPNRTBM1_AUTONOMIC_GANGLIA
Summary of the method: as §1

[14] = test system: CAL33_UPPER_AERODIGESTIVE_TRACT
Summary of the method: as §1

[15] = test system: HCC95_LUNG
Summary of the method: as §1

[16] = test system: KYSE510_OESOPHAGUS
Summary of the method: as §1

[17] = test system: YD10B_UPPER_AERODIGESTIVE_TRACT
Summary of the method: as §1

Q: CCN(C/C=C/C#CC(C)(C)C)Cc1cccc(OCc2cc(-c3ccsc3)cs2)c1 [NB-598] was tested. Which GI50 [1] did it give?
A: 296 nM

Q: What about the GI50 [2] of the same molecule?
A: 10700 nM

Q: And the GI50 [3]?
A: 2690 nM

Q: What about the GI50 [4] of the same molecule?
A: 2190 nM

Q: What about the GI50 [5] of the same molecule?
A: 243 nM

Q: What about the GI50 [6] of the same molecule?
A: 20.3 nM

Q: What about the GI50 [7] of the same molecule?
A: 32 nM

Q: What about the GI50 [8] of the same molecule?
A: 9650 nM

Q: And the GI50 [9]?
A: 16.9 nM

Q: And the GI50 [10]?
A: 8580 nM

Q: What about the GI50 [11] of the same molecule?
A: 38.2 nM

Q: And the GI50 [12]?
A: 6570 nM

Q: What about the GI50 [13] of the same molecule?
A: 3490 nM

Q: What about the GI50 [14] of the same molecule?
A: 42.5 nM

Q: What about the GI50 [15] of the same molecule?
A: 134 nM

Q: What about the GI50 [16] of the same molecule?
A: 73.1 nM

Q: And the GI50 [17]?
A: 71.4 nM
